# Measurements from patent US12005056B2, “Centrally-active ghrelin agonist and medical uses thereof” (Helsinn Healthcare SA, priority 2018, dated 2024).
# “Also recorded” adds a separate entry of the source. Read-outs that look alike come from different tables or passages of the source.
# Experiments:
# human GHSR1 receptor = target: T1, human GHSR1 receptor (Homo sapiens, UniProt Q92847); assay: [125I]Ghrelin binding assay on membranes from BHK cells; settings: 1 nM [125I]Ghrelin, BHK cell membranes
# T1 construct: expressed in transfected cells; host or cells: BHK cells (membrane preparation)
# T1 sequence (Q92847 whole entry): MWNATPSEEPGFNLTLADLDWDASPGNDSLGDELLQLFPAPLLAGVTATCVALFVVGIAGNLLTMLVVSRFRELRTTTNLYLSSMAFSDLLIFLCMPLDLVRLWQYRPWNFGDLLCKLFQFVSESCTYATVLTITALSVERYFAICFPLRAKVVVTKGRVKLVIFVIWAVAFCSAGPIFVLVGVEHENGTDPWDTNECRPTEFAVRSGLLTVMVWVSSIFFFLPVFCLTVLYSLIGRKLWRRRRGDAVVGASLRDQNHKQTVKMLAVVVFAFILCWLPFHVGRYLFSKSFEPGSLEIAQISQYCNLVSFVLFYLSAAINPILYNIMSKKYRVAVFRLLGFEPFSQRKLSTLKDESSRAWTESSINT
# Method: In additional binding study, compound A was dissolved in DMSO and diluted with water in different range of concentrations. Membrane protein prepared from BHK cells stably expressing human GHSR1 receptor were used for binding assay. The membrane was diluted in assay buffer to yield 20 μg/well in 120 μl. The binding assay was set up in 96 well plate as following: 120 μl [^125I]Ghrelin (final concentration 1 nM) and 15 μl compound A (10×) diluted in the assay buffer. The reaction mixture was incubated at room temperature for 30 minutes before terminating by quick filtration onto GF/B filtration plate pre-soaked in 0.3% PEI using cell harvester (Perkin Elmer). The filter was washed three times and dried at 37° overnight. The radioactivity bound to filter membrane was measured with MicroBeta Trilux (Perkin Elmer).
# [1] = system: oxaliplatin-treated Balb/C mice; settings: for Body Weight / IENFD / NCS: Oxaliplatin 6 mg/kg (i.p.) twice weekly for 4 weeks
# [2] = system: cisplatin-treated Wistar rats; assay: Cisplatin study (body weight, food intake, von Frey testing); format: in vivo; settings: for Body Weight / Allodynia: Cisplatin 0.5 mg/kg (i.p.) for three days
# Method: Compound A was made as a suspension in 0.5% carboxymethylcellulose solution in dosing volumes of 1 and 10 mL/kg for rats and mice respectively and dosed orally at 3, 10 or 30 mg/kg. […] Bortezomib was prepared in 10% Tween 80, 10% EtOH 100% and 80% saline solution and injected i.v. (1 mL/kg) at 0.2 mg/kg.
# Fifty male Wistar rats weighing 250-300 g at start of experiment were randomly divided into 5 groups of 10 rats each. Group 1 received daily Compound A vehicle (p.o.) for 6 days and cisplatin vehicle (i.p.) for 3 days. Group 2 received Compound A vehicle (p.o) and 0.5 mg/kg cisplatin (i.p.) for 3 days followed by Compound A vehicle for 3 additional days. Group 3 received daily 3 mg/kg Compound A (p.o) and 0.5 mg/kg cisplatin (i.p.) for 3 days followed by 3 mg/kg Compound A for an additional 3 days. Group 4 received 10 mg/kg Compound A (p.o) and 0.5 mg/kg cisplatin (i.p.) for 3 days followed by 10 mg/kg Compound A for an additional 3 days. Group 5 received daily 30 mg/kg Compound A (p.o.) and 0.5 mg/kg cisplatin (i.p.) for 3 days followed by 30 mg/kg Compound A for an additional 3 days. In each case, cisplatin or cisplatin vehicle was dosed 30 min after Compound A or Compound A vehicle, which was dosed 1 hour prior to von Frey filament testing. Individual body weights and 24 h food intake were measured daily from just prior to initiation of dosing.
# In the cisplatin study, rats were individually housed and acclimated to handling and to the Von Frey testing apparatus for several days prior to start of the experiment. Baseline measurements were obtained prior to dosing. Behavioral testing was conducted following procedures previously described (28). Each filament was tested 5 times and the test continued until 3 withdrawal responses to a particular filament were recorded.
# [3] = rat, in vivo
# [4] = rat, in vivo; remark: listed apart in the source
# human GHSR1a receptor = target: T2, human GHSR1a receptor (Homo sapiens, UniProt Q92847); assay: FLIPR assay in HEK293 cells stably expressing human GHSR1a receptor; format: cell-based; settings: read-out: EC50, agonist activity in FLIPR assay
# T2 construct: expressed in transfected cells; host or cells: HEK293
# T2 sequence (Q92847 whole entry): as above
# Method: HEK293 cells stably expressing human GHSR1a receptor were used in FLIPR assay. Cells were maintained under standard procedures. One day prior the test, cells were seeded at a density of 1.5×10^4/well in a Matrigel® coated 384-well plate with 30 μl of complete DMEM medium, and incubated at 37° C. in 5% CO2 for 22-26 hrs. On the test day, 4× loading dye was added into each well (10 μl per well for 384 well plates). Assay plates were incubated at 37° C. in the dark for 30 minutes. Then the dye content was removed by centrifugation at 300 rpm for 30 s. 40 μL HBSS/Hepes with 1 mM probenicid was added with Platemate Matrix (low speed setting, Thermo). The plate was then placed in FLIPR Tetra (Molecular Device) and 5× working concentrations of agonists were added by FLIPR. Fluorescence signal was detected with FLIPR at room temperature according to standard settings.
# [5] = dog, in vivo
substance,measurement,setting,value
"3-(1-(2,3-dichloro-4-methoxyphenyl) ethyl)-1-methyl-1-(1,3,3-trimethylpiperidin-4-yl)urea monohydrochloride salt [Compound A]",Ki,human GHSR1 receptor,1.42 ± 0.35 nM
same,improvement of digital potential amplitude vs. oxaliplatin-treated mice,[1]; Compound A 30 mg/kg,33+/−9%
same,digital potential amplitude,[1]; Compound A 30 mg/kg (FIG. 2B),able to normalize
same,oxaliplatin-induced decrease in digital and caudal NCV,[1]; Compound A 10 and 30 mg/kg,significantly prevented
same,IENFD in footpads vs. vehicle treated mouse values,"[1]; Compound A 10 and 30 mg/kg, monohydrochloride salt",completely normalized; also recorded: completely normalised
same,weight loss compared to oxaliplatin treated mice,[1]; Compound A 10 or 30 mg/kg,less weight loss
same,Body Weight,[1]; Compound A dose 10,+
same,IENFD,[1]; Compound A dose 10,+
same,NCS,[1]; Compound A dose 10,+
same,Body Weight,[1]; Compound A dose 30,+
same,IENFD,[1]; Compound A dose 30,+
same,NCS,[1]; Compound A dose 30,+
same,degenerative changes in DRG and sciatic nerve,"[1]; mouse, in vivo",did not cause any degenerative changes
same,Body Weight,[2]; Compound A dose 3,+
same,Allodynia,[2]; Compound A dose 10,+
same,Body Weight,[2]; Compound A dose 10,+
same,Allodynia,[2]; Compound A dose 30,+
same,Body Weight,[2]; Compound A dose 30,+
same,cisplatin-induced mechanical hyperalgesia,"[2]; Compound A 3 mg/kg p.o., monohydrochloride salt, 3 mg/kg",no significant effect and not
same,paw withdrawal thresholds compared to vehicle-treated rats,"[2]; Compound A 30 mg/kg, Days 3 thru 5",significantly increased
same,overall food intake compared to cisplatin alone,"[2]; Compound A 3, 10 and 30 mg/kg p.o.",increased
same,body weight compared to cisplatin alone,"[2]; Compound A 3, 10 and 30 mg/kg p.o., monohydrochloride salt",increased; also recorded: improved
same,food intake compared to cisplatin alone,[2]; Compound A 10 and 30 mg/kg p.o. (FIG. 1B),improved
same,cisplatin-induced mechanical hyperalgesia,"[2]; Compound A 10 and 30 mg/kg p.o., monohydrochloride salt",significantly reduced; also recorded: significantly improved
same,AUClast,"[3]; iv, 3 mg/kg",937 ± 145 ng·h/mL
same,C0083/Cmax,"[3]; iv, 3 mg/kg",682 ± 58.5 ng/mL
same,CL (clearance),"[3]; iv, 3 mg/kg",52.0 ± 9.22 mL/min/kg
same,Vss (volume distribution at steady state),"[3]; iv, 3 mg/kg",6.6 ± 0.491 L/kg
same,"t1/2, z","[3]; iv, 3 mg/kg",1.92 ± 0.121 h
same,AUClast,"[3]; iv, 10 mg/kg",3540 ± 765 ng·h/mL
same,AUClast,"[3]; po, 3 mg/kg",780 ± 155 ng·h/mL
same,C0083/Cmax,"[3]; po, 3 mg/kg",181 ± 43.7 ng/mL
same,F (bioavailability),"[3]; po, 3 mg/kg",83 ± 21%
same,"t1/2, z","[3]; po, 3 mg/kg",2.56 ± 0.177 h
same,tmax,"[3]; po, 3 mg/kg",1.67 ± 0.577 h
same,AUClast,"[3]; po, 10 mg/kg",3400 ± 1010 ng·h/mL
same,tmax,"[3]; po, 10 mg/kg",1.67 ± 2.02 h
same,AUClast,"[3]; po, 30 mg/kg",12300 ± 1400 ng·h/mL
same,C0083/Cmax,"[3]; po, 30 mg/kg",1430 ± 208 ng/mL
same,F (bioavailability),"[3]; po, 30 mg/kg",116 ± 28%
same,bioavailability,"[3]; po, 30 mg/kg",exceeded 80%
same,"t1/2, z","[3]; po, 30 mg/kg",3.26 ± 0.170 h
same,tmax,"[3]; po, 30 mg/kg",1.67 ± 0.577 h
same,F,[4],70.6%
same,2 hr brain concentration,[4]; iv,172. ng · g
same,2 hr plasma concentration,[4]; iv,119.3 ng/mL
same,AUC (0-t),"[4]; iv, 3 mg/kg",701.5 ng·h/mL
same,Cmax,"[4]; iv, 3 mg/kg",468.4 ng/mL
same,T1/2 z,"[4]; iv, 3 mg/kg",1.6 h
same,Vz/F,"[4]; iv, 3 mg/kg",9.9 L/kg
same,AUC (0-t),"[4]; po, 3 mg/kg",495.3 ng·h/mL
same,Cmax,"[4]; po, 3 mg/kg",58.6 ng/mL
same,T1/2 z,"[4]; po, 3 mg/kg",12.7 h
same,Vz/F,"[4]; po, 3 mg/kg",38.6 L/kg
same,tmax,"[4]; po, 3 mg/kg",3.3 h
same,EC50,human GHSR1a receptor,1.25 ± 0.42 nM
same,F,[5],31.2%
same,T1/2 z,"[5]; iv, 1 mg/kg",1.6 h
same,Vz/F,"[5]; iv, 1 mg/kg",3.7 L/kg
same,T1/2 z,"[5]; po, 2 mg/kg",1.6 h
same,Vz/F,"[5]; po, 2 mg/kg",13.0 L/kg
